Assay results taken from PMC4089482, “Bacterial periplasmic sialic acid-binding proteins exhibit a conserved binding site” (Acta Crystallographica Section D: Biological Crystallography, 2014).
“Also recorded” adds a separate entry of the source. Read-outs that look alike come from different tables or passages of the source.

Tests used:
Fn-SiaP = Fn-SiaP (Fusobacterium nucleatum subsp. nucleatum, UniProt Q8RDN9); assay: ITC binding of sialic acids to Fn-SiaP; details: 20 mM HEPES pH 8.0, 10 mM NaCl, 25°C
Protocol: (§1) ITC measurements were performed using a MicroCal ITC system (GE Healthcare). The reaction buffer for all of the experiments was 20 mM HEPES pH 8.0, 10 mM NaCl. All titrations were carried out at 25°C. The protein concentration was determined using the Bio-Rad Bradford reagent. The concentrations of SiaP and Neu5Ac/Neu5Gc were varied in the different titrations and each binding experiment was repeated three times. The nonspecific heat released by the dilution of both the sugars and the protein was calculated by averaging the heat liberated during the last 3–5 injections after saturation. This value was then subtracted from the raw heat released during each injection. To derive the stoichiometric values, the data sets were analyzed using a single-site binding model from the Origin ITC analysis software (MicroCal). In this analysis, the values for the stoichiometry, the change in enthalpy (ΔH) and the affinity were fitted using nonlinear least-squares analysis. To derive the values for the affinity, ΔS and ΔH, data sets were globally analyzed using the single-site binding model in SEDPHAT (Vistica et al., 2004[▶]; Dam & Schuck, 2005[▶]).

Pm-SiaP = Pm-SiaP (Pasteurella multocida, UniProt Q9CKB5); assay: ITC binding of sialic acids to Pm-SiaP
Protocol: as §1

Vc-SiaP = target: T1, Vc-SiaP (Vibrio cholerae serotype O1, UniProt Q9KR64); assay: ITC binding of sialic acids to Vc-SiaP; details: 20 mM HEPES pH 8.0, 10 mM NaCl, 25°C
T1 construct: PCR-amplified using the forward primer 5′-[…]-3′; made in house; host or cells: Escherichia coli BL21 (DE3)
T1 sequence (Q9KR64 23-321): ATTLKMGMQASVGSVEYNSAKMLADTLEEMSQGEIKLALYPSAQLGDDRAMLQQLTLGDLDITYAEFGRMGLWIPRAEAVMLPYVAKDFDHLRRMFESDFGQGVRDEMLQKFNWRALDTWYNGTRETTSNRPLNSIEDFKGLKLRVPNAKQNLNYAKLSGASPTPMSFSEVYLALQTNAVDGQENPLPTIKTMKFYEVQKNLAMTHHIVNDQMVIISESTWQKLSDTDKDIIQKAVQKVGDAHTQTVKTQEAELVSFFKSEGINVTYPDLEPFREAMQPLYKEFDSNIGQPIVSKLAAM
Protocol: as §1

Hi-SiaP wild type [1] = target: T2, Hi-SiaP wild type (Haemophilus influenzae, UniProt P44542); assay: ITC binding of Neu5Ac to wild-type Hi-SiaP
T2 construct: made in house
Protocol: as §1

Hi-SiaP E67A mutant = target: T3, Hi-SiaP E67A mutant (Haemophilus influenzae, UniProt P44542, E90A); assay: ITC binding of Neu5Ac to Hi-SiaP E67A
T3 construct: made in house
Protocol: as §1

Hi-SiaP E186Q mutant = target: T4, Hi-SiaP E186Q mutant (Haemophilus influenzae, UniProt P44542, E209Q); assay: ITC binding of Neu5Ac to Hi-SiaP E186Q
T4 construct: made in house
Protocol: as §1

Hi-SiaP N187Q mutant = target: T5, Hi-SiaP N187Q mutant (Haemophilus influenzae, UniProt P44542, N210Q); assay: ITC binding of Neu5Ac to Hi-SiaP N187Q; details: 25°C
T5 construct: made in house
Protocol: as §1

Hi-SiaP T64K mutant = target: T6, Hi-SiaP T64K mutant (Haemophilus influenzae, UniProt P44542, T87K); assay: ITC binding of Neu5Ac to Hi-SiaP T64K
T6 construct: made in house
Protocol: as §1

Hi-SiaP H209A mutant = target: T7, Hi-SiaP H209A mutant (Haemophilus influenzae, UniProt P44542, H232A); assay: ITC binding of Neu5Ac to Hi-SiaP H209A; details: 25°C
T7 construct: made in house
Protocol: as §1

Hi-SiaP T64R mutant = target: T8, Hi-SiaP T64R mutant (Haemophilus influenzae, UniProt P44542, T87R); assay: ITC binding of Neu5Ac to Hi-SiaP T64R; details: 25°C
T8 construct: made in house
Protocol: as §1

Hi-SiaP R127K mutant = target: T9, Hi-SiaP R127K mutant (Haemophilus influenzae, UniProt P44542, R150K); assay: ITC binding of Neu5Ac to Hi-SiaP R127K; details: 25°C
T9 construct: made in house
Protocol: as §1

[2] = tested on: V. cholerae O1 biovar eltor strain N16961; assay: Growth-curve experiment in M9 minimal medium with different sugars; format: cell-based, Vibrio cholerae; details: M9 minimal medium supplemented with sugar (5 mg ml^−1; all at 5 mM), 37°C
Protocol: V. cholerae O1 biovar eltor strain N16961 was initially grown on LB agar plates. Subsequently, 3 ml M9 minimal medium supplemented with different sugars (5 mg ml^−1) was inoculated with bacteria at an OD600 of 0.07. These cultures were incubated in a 37°C shaker at 225 rev min^−1. Optical densities at A 600 were measured at various time points using a Spectronic GENESYS 20 Visible Spectrophotometer to observe the growth pattern of V. cholerae in different compounds. The different sugars used were Neu5Ac, Neu5Gc, fetuin (a glycoprotein of foetal serum that contains different sugars and sialic acid; Spiro, 1960[▶]), asialofetuin, galactose, glycerol, D-lactic acid, succinate, sucrose, DL-malic acid and fructose, all at 5 mM concentration. Based on the readings, a graph of OD600 was plotted.

V. cholerae = assay: ELISA (3F11) of Neu5Ac incorporation onto surface LOS; format: cell-based, Vibrio cholerae
Protocol: V. cholerae was grown on sBHI agar plates containing 100 µM Neu5Ac and LB. Cells were harvested and resuspended in PBS (20 mM Na2HPO4, 150 mM NaCl pH 7.0) at an OD600 of 0.2. The wells of Costar 96-well EIA/RIA plates (Corning) were filled with 100 µl of the bacterial suspension and six wells were used for each experiment. The plates were dried at 40°C overnight. The plates were washed four times with buffer C (72 mM sodium acetate, 165 mM sodium chloride, 0.55% Tween 20) using an ELx50 Strip Washer (BioTek Instruments, Winooski, Vermont, USA). A neuraminidase digest was performed on three wells by adding 100 µl 0.01 U ml^−1 neuraminidase (Roche Diagnostics GmbH, Mannheim, Germany) diluted in neuraminidase buffer (50 mM sodium acetate, 154 mM NaCl, 9 mM CaCl2, 25 µg ml^−1 human serum albumin pH 5.6) and the other three wells were treated with just the buffer. The plate was incubated for 6 h at 37°C and the wells were then washed. The monoclonal antibody 3F11, diluted 1/200 in buffer C, was added to each well. The plates were incubated at 37°C overnight (approximately 18 h) followed by a wash. The secondary antibody, phosphatase-labelled goat anti-mouse IgM (Kirkegaard and Perry Laboratories, Gaithersburg, Maryland, USA), diluted 1/2000 in buffer C, was added. […] When a yellow colour had developed, the absorbance at 405 nm was read using a Microplate Autoreader EL311 (BioTek Instruments).

Hi-SiaP wild type [3] = target: T2, Hi-SiaP wild type; parameters: method as in Johnston et al. (2008); details: taken for comparison; ref Johnston et al. (2008); cited from earlier work
[4] = ITC, 20 mM HEPES pH 8.0, 10 mM NaCl, 25°C

SMILES: CC(=O)NC1C(O)CC(O)(C(=O)O)OC1C(O)C(O)CO (centres unmarked) [Neu5Ac]
- H (change in enthalpy, ΔH) (Fn-SiaP): 9165 calmol^1
- Kd (Fn-SiaP): 45.5 nM
- T S (entropic component) (Fn-SiaP): 849.3 calmol^1
- H (change in enthalpy, ΔH) (Pm-SiaP; [4]): 6560 calmol^1
- T S (entropic component) (Pm-SiaP; [4]): 3948.2 calmol^1
- Kd (Pm-SiaP; ITC, 20 mM HEPES pH 8.0, 10 mM NaCl, 25°C, read-out: K d): 19.7 nM
- Kd (Pm-SiaP; fit box of the isotherm in Figure 4, single-site model, read-out: K (association constant) (converted)): 27 nM
- H (change in enthalpy, ΔH) (Vc-SiaP): 7175 calmol^1
- Kd (Vc-SiaP): 306 nM
- T S (entropic component) (Vc-SiaP): 508.9 calmol^1
- affinity for Neu5Ac in words (Hi-SiaP wild type [1]): nanomolar affinity
- Kd (Hi-SiaP wild type [1]; 20 mM HEPES pH 8.0, 10 mM NaCl, 25°C): 16.6 nM
- H (change in enthalpy, ΔH) (Hi-SiaP wild type [1]; 25°C): 17500 calmol^1
- T S (entropic component) (Hi-SiaP wild type [1]; 25°C): 6883 calmol^1
- affinity for Neu5Ac in words (Hi-SiaP E67A mutant): micromolar affinity
- H (change in enthalpy, ΔH) (Hi-SiaP E67A mutant; 25°C): 249.5 calmol^1
- T S (entropic component) (Hi-SiaP E67A mutant; 25°C): 6168.6 calmol^1
- affinity for Neu5Ac in words (Hi-SiaP E186Q mutant): micromolar affinity
- H (change in enthalpy, ΔH) (Hi-SiaP E186Q mutant; 25°C): 6827 calmol^1
- T S (entropic component) (Hi-SiaP E186Q mutant; 25°C): 1016 calmol^1
- H (change in enthalpy, ΔH) (Hi-SiaP N187Q mutant): 7939 calmol^1
- T S (entropic component) (Hi-SiaP N187Q mutant): 40.826 calmol^1
- affinity for Neu5Ac in words (Hi-SiaP T64K mutant): micromolar affinity
- H (change in enthalpy, ΔH) (Hi-SiaP T64K mutant; 25°C): 8743 calmol^1
- T S (entropic component) (Hi-SiaP T64K mutant; 25°C): 294.72 calmol^1
- H (change in enthalpy, ΔH) (Hi-SiaP H209A mutant): 13360 calmol^1
- T S (entropic component) (Hi-SiaP H209A mutant): 4917 calmol^1
- K d / binding to Neu5Ac (Hi-SiaP T64R mutant): No measurable binding
- K d / binding to Neu5Ac (Hi-SiaP R127K mutant): did not bind to Neu5Ac with measurable affinity; also recorded: No measurable binding
- growth of V. cholerae in the presence of the compound (OD600) [2]: grows
- 3F11 binding of V. cholerae grown with Neu5Ac (ELISA) (V. cholerae; 100 µM Neu5Ac, binding did occur after neuraminidase: sialic acid incorporated into surface LOS): did not bind 3F11
- difference in absorbance before and after adding neuraminidase (level of Neu5Ac incorporation) (V. cholerae; 3F11 ELISA, Figure S4, very little difference in LB media control): significant difference
- H (change in enthalpy, ΔH) (Hi-SiaP wild type [3]): 15300 calmol^1
- Kd (Hi-SiaP wild type [3]): 28 nM
- T S (entropic component) (Hi-SiaP wild type [3]): 5000 calmol^1
